Data from patent US10004730B2, “Small molecules targeting androgen receptor nuclear localization and/or level in prostate cancer” (University of Pittsburgh-Of the Commonwealth System of …, priority 2011, dated 2018).

Legend:
[1] = tested on: C4-2, LNCaP, LAPC-4, PC3 and COS-1 cell lines; assay: Cytotoxicity in a panel of cultured cell lines; format: cell-based
Description: The screen identified ˜30 candidate small molecules that can disrupt GFP-AR nuclear localization in the C4-2 stably-transfected cell line. They were tested further to verify they can indeed disrupt AR nuclear localization in C4-2 cells and to determine whether the inhibition of nuclear localization of GFP-AR is mediated through a general inhibition of nuclear import machinery. […] Also, the candidate small molecules were tested for their cytotoxicity using a panel of cultured cell lines.
Once the candidate small molecules were identified, they were tested if they indeed can inhibit androgen-independent nuclear localization of GFP-AR and endogenous AR in the C4-2 cells. Also, these agents were tested to see if they are cytotoxic in several different cell lines, including the AR-positive prostate cancer cell lines C4-2, LNCaP, LAPC-4 and AR-negative cell lines PC3 and COS-1 (FIG. 8). These assays led to the identification of 3 agents that specifically target androgen-independent AR nuclear localization in prostate cancer cells and have minimal cytotoxicity on other types of cells.

PC3 cells = assay: Cell survival, crystal violet staining, PC3; format: cell-based; conditions: 48 hrs
Description: FIGS. 8A and 8B. Effect of SID 14730725 and SID 3712502 on survival of PC3 (FIG. 8A) and C4-2 cells (FIG. 8B). PC3 or C4-2 cells were plated in 12-well plates at 2,500 cell per well in RPMI 1640 complete medium. After 24 hrs, the cells were treated with SID 14730725 or SID 3712502 at the indicated concentrations for 48 hrs. The wells were washed with PBS thrice and fixed in 0.5% crystal Violet in methanol. C=control; treated with vehicle DMSO.

GFP-GR = molecular target: T1, GFP-GR (Homo sapiens, UniProt P04150); assay: GFP-GR nuclear localization in transfected C4-2 cells; format: cell-based; conditions: co-treated with 0.5 μM Dexamethasone, 24 hours
T1 construct: expressed in transfected cells; host or cells: C4-2
T1 sequence (P04150 whole entry): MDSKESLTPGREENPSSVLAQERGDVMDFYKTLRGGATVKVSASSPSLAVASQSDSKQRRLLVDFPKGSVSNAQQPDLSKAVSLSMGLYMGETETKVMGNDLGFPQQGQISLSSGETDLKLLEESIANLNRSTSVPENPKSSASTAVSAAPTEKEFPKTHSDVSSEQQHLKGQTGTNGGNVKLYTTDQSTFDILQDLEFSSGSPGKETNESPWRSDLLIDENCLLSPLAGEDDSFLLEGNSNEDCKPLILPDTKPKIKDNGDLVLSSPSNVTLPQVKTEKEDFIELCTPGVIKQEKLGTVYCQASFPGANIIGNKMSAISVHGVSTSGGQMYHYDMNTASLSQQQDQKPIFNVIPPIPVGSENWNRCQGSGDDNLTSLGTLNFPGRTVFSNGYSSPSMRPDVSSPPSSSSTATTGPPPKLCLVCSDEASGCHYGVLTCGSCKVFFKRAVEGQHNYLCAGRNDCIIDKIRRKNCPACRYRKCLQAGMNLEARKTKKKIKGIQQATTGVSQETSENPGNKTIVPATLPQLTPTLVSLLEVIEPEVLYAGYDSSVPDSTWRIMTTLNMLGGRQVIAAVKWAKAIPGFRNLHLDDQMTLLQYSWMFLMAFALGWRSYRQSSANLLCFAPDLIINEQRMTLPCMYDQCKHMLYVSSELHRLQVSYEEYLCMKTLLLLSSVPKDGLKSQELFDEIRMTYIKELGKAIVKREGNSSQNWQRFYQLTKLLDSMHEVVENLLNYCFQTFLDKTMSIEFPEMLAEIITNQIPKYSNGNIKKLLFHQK
Description: (§1) FIG. 7. The effect of SID 14730725 and SID 3712502 on nuclear localization of GFP-ER (Top panel) and GFP-GR (Bottom panel) in C4-2 cells. C4-2 cells were transfected with GFP-ER or GFP-GR overnight. The following day the cells were treated with different concentrations (uM) of the small molecules. The cells transfected with GFP-GR were co-treated with 0.5 μM Dexamethasone. Cells were imaged 24 hours after the treatment with the small molecules.

PSA = assay: Western blot of AR target PSA in prostate cancer cells; format: cell-based
Description: FIGS. 10A and 10B. Down-regulation of the expression of AR and its downstream target PSA by SID 3712502 in C4-2 (FIG. 10A) and LNCaP (FIG. 10B) cells. Cells in RPMI 1640 complete medium were treated with SID 3712502 or vehicle DMSO at the indicated concentrations for 48 hrs. The cells were then harvested in RIPA buffer for Western blot analysis using antibodies for AR, PSA, and GAPDH. GAPDH was included as a loading control.
FIGS. 13A-C. Effect of SID 3712502 on the expression of AR and PSA in 22Rv1 (FIG. 13A) cells. […] The cells in RPMI 1640 complete medium were treated with SID 3712502 or vehicle DMSO at the indicated concentrations (uM) for 48 h. The cells were then harvested in RIPA buffer for Western blot analysis using antibodies for AR, PSA, and GAPDH. GAPDH was included as a loading control. FIG. 13B. SID 3712502 inhibits AR transactivation of PSA-luciferase reporter. C4-2 cells were transfected with PSA6.1-Luc, GFP-AR, and pRL-CMV and then treated with indicated doses of SID 3712502 for 24 hours. FIG. 13C. SID 3712502 inhibits transactivation of PSA-luciferase reporter by AR(1-665), which lacks LBD. […] For luciferase assays, cells were lysed with passive lysis buffer (Promega) and both Firefly and Renilla luciferase activities were read using a Dual-Luciferase Reporter Assay kit (Promega) on a LmaxII384 luminometer (Molecular Devices). […]

[2] = tested on: AR transactivation of PSA-luciferase reporter; assay: PSA-luciferase reporter, full-length AR, C4-2 cells; format: cell-based; conditions: 24 hours
Description: FIGS. 13A-C. Effect of SID 3712502 on the expression of AR and PSA in 22Rv1 (FIG. 13A) cells. […] The cells in RPMI 1640 complete medium were treated with SID 3712502 or vehicle DMSO at the indicated concentrations (uM) for 48 h. The cells were then harvested in RIPA buffer for Western blot analysis using antibodies for AR, PSA, and GAPDH. GAPDH was included as a loading control. FIG. 13B. SID 3712502 inhibits AR transactivation of PSA-luciferase reporter. C4-2 cells were transfected with PSA6.1-Luc, GFP-AR, and pRL-CMV and then treated with indicated doses of SID 3712502 for 24 hours. FIG. 13C. SID 3712502 inhibits transactivation of PSA-luciferase reporter by AR(1-665), which lacks LBD. PC3 cells were transfected with GFP-NAR and PSA6.1 Luc overnight prior to treatment with 10 μM SID 3712502 (SID) or DMSO (C) for 24 hours. For luciferase assays, cells were lysed with passive lysis buffer (Promega) and both Firefly and Renilla luciferase activities were read using a Dual-Luciferase Reporter Assay kit (Promega) on a LmaxII384 luminometer (Molecular Devices). Firefly luciferase values were normalized to Renilla (pRL-CMV) or protein of cell lysates. Plotted values represent averaged normalized Firefly luciferase activities, each performed in triplicate, relative to DMSO control. One-way ANOVA was performed with a Bonferroni's Multiple Comparison posttest *** p<0.0001 (C). […]

22Rv1 cells = assay: BrdU incorporation, 22Rv1; format: cell-based; conditions: 22Rv1, 48 hrs
Description: (§2) FIGS. 14A-F. Effect of SID 3712502 at indicated concentrations on BrdU incorporation in cultured AR-positive LNCaP (FIG. 14A), C4-2 (FIG. 14B), 22Rv1 (FIG. 14C), LAPC4 (FIG. 14D) cells, and AR-negative DU145 (FIG. 14E) and PC3 (FIG. 14F) cells. Cells were plated in 12-well plates at 2,500 cell per well in RPMI 1640 complete medium. After 24 hrs, the cells were treated with SID 3712502 at the indicated concentrations for 48 hrs and BrdU incorporation was assayed according to manufacturer's instructions (Invitrogen BrdU staining kit; catalog #: 93-3943). The percentage of BrdU-positive cells was determined and then normalized to generate relative BrdU index. Ctrl=DMSO control.

PC3 tumors = assay: PC3 xenograft tumors in castrated SCID mice; format: in vivo; conditions: i.p. 25 mg/kg every other day
Description: FIGS. 15A-B. SID 3712502 inhibited the growth of castration resistant 22Rv1 xenograft tumors (FIG. 15A), but not PC3 tumors (FIG. 15B). 22Rv1 or PC3 tumors were established by s.c. injection of 1×10^6 cells into young adult male SCID mice. SCID mice were castrated and randomized when tumor volume reached ˜400 uL. Mice received i.p. delivery of SID 3712502 (25 mg/kg body weight) or vehicle control EPL every other day, beginning 4 days after castration (injection indicated by arrows). Each group consisted of 10 mice for 22Rv1, and 8 mice for PC3 tumors. Tumor volumes were measured using micro-calipers and calculated using the formula (length×width^2)/2. Black and red lines represent data from the animals treated with vehicle (C) and SID 3712502 (SID), respectively. P value was calculated using a two-way ANOVA with the Bonferrroni correction (GraphPad). Error bars=SEM. **p<0.01.

LAPC4 cells = assay: BrdU incorporation, LAPC4; format: cell-based; conditions: LAPC4, 48 hrs
Description: as §2

GFP-ER = molecular target: T2, GFP-ER (Homo sapiens, UniProt P03372); assay: GFP-ER nuclear localization in transfected C4-2 cells; format: cell-based; conditions: 24 hours
T2 construct: expressed in transfected cells; host or cells: C4-2
T2 sequence (P03372 whole entry): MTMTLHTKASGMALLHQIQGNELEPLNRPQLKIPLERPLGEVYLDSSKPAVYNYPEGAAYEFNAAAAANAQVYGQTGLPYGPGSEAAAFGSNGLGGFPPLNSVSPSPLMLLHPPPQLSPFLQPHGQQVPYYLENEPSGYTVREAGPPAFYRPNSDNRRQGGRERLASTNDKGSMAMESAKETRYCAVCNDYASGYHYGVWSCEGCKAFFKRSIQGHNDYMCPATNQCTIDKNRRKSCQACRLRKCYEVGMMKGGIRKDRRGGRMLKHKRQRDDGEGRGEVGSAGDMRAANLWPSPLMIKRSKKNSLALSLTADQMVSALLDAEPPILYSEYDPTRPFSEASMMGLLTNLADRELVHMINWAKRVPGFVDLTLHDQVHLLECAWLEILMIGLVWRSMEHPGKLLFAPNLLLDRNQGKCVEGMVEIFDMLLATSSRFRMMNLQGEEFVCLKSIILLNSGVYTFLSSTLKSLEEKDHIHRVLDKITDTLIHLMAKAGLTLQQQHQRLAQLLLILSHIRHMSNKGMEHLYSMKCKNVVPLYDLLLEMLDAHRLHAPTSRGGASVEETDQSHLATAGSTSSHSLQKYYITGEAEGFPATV
Description: as §1

Cc1cccc(N2CCN(C(=O)CSCc3c(C)noc3C)CC2)c1C [SID 3712502, 2-[(3,5-dimethyl-1,2-oxazol-4-yl)methylsulfanyl]-1-[4-(2,3-dimethylphenyl)piperazin-1-yl]ethanone]
cytotoxicity to various cultured cells [1]: little or no cytotoxicity
cytotoxicity (PC3 cells): little or no cytotoxicity
localization of GFP-GR (GFP-GR): no effect
AR-target gene PSA expression (PSA; 2 uM, 48 h, C4-2 and 22Rv1 cells): significantly inhibited
PSA expression (PSA; LNCaP cells, 48 hrs): Down-regulation
transactivation activity of full-length AR (PSA-luciferase) [2]: can inhibit the transactivation activity
proliferation (BrdU incorporation) (22Rv1 cells): inhibited the proliferation
growth of AR-negative PC3 tumor (PC3 tumors): did not inhibit
proliferation (BrdU incorporation) (LAPC4 cells): inhibited the proliferation
localization of GFP-ER (GFP-ER): no effect
